The record followed here is US4737513A, “Novel pyrrole derivatives” (Roussel Uclaf, priority 1984, dated 1988).

What all share (assay type): in vivo
One assay has as its system house flies. Nature of the assay: Study of knock-down activity of house flies (direct atomization in a Kearns and March chamber). The following applies: for KT 50: concentration at 0.1 g/l, female house flies 4 days old, acetone (5%) and Isopar L. As to the method:
(1) Study of knock-down activity of house flies
The test insects were female house flies 4 days old and the test was effected by direct atomization in a Kearns and March chamber using as solvent a mixture of acetone (5%) and Isopar L (petrol solvent) (quantity of solvent used, 2 ml in one second). 50 insects were used per treatment and checks were made every minute for 10 minutes, then at 15 minutes, and the KT50 was determined by the usual methods.

Assay [1] concerns cockroaches (Blatella germanica). Kind of assay: Study of activity by tarsal contact on cockroaches. Conditions: male Blatella germanica; 1 hour on dried acetone deposit; mortality checked at 24 hours, 48 hours, 3 days and 5 days. As to the method: (2) Study of activity by tarsal contact on cockroaches
The insects tested were male cockroaches (Blatella germanica) and the test was carried out by depositing an acetone solution of a certain concentration on the bottom of a Petri dish 20 cm in diameter. After this had dried, 20 male cockroaches were allowed to stay there per concentration for 1 hour, after which they were transferred to a healthy medium and their mortality was checked at 24 hours, 48 hours, 3 days and 5 days. The result was expressed as lethal concentration 50 (LC 50) in mg/m^2.

The test system of the next assay is Tetranychus urticae. Kind of assay: Activity on Tetranychus urticae, test of lethal effect on adults. The following applies: for LD 50: females on treated bean leaves, checked after 80 hours of contact. As to the method: (4) Activity on Tetranychus urticae, test of lethal effect on adults
Bean plants having two cotyledon leaves were used which were treated with a Fisher gun with an acetone solution of the product. After drying, 25 females of the acaridan Tetranychus urticae were placed on each leaf, that is 50 individuals per experimental dose per plant. The efficacity was checked after 80 hours of contact, and the LD 50 was indicated in mg/hl.

Another assay concerns Aphis cracivora. Kind of assay: Study of lethal effect on Aphis cracivora (contact-ingestion method). More on the design: unit not given here. The following applies: adults 7 days old; 1 hour contact with treated bean leaf; mortality checked after 24 hours. As to the method: (3) Study of lethal effect on Aphis cracivora
Adults 7 days old were used with 10 aphis per concentration using a contact-ingestion method. The treatment was carried out with a Fisher gun on a bean leaf which was placed in a plastic Petri dish on a disc of moistened paper. 2 ml of an acetone solution of the product under test were used with 1 ml per face of the leaf and the insect infestation was carried out after drying the leaf. The insects were kept in contact with the leaf for 1 hour and then they were placed on untreated leaves.

Each structure is given as a SMILES string.

Consider `C#CCn1cc(COC(=O)[C@@H]2[C@H](/C=C(/F)C(=O)OCC)C2(C)C)cc1C(F)(F)F` [Example 70, [1-(2-propynyl)-2,2,2-trifluoromethyl-1H-pyrrol-4-yl]-methyl (1R,cis,ΔE) 2,2-dimethyl-3-[2-fluoro-3-ethoxy-3-oxo-1-propenyl]-cyclopropane carboxylate], for which the “KT 50” value with house flies stood at 3.9 min. The “lethal concentration 50 (LC 50)” value in assay [1] is reported as 4.5 mg/m^2. Moreover, in the assay with Tetranychus urticae, the “LD 50” value was 2126 mg/hl.
Turning to `C#CCn1cc(COC(=O)[C@@H]2[C@H](/C=C(/F)C(=O)OCC)C2(C)C)c(C(F)(F)F)c1` [Example 72, [1-(2-propynyl)-3,3,3-trifluoromethyl-1H-pyrrol-4-yl]methyl (1R,cis,ΔE) 2,2-dimethyl-3-[2-fluoro-3-ethoxy-3-oxo-1-propenyl]-cyclopropane carboxylate], in the assay with house flies, the “KT 50” value is given as 3.8 min. In assay [1], the “lethal concentration 50 (LC 50)” value was 6.7 mg/m^2.
For `C#CCn1ccc(COC(=O)[C@@H]2[C@H](/C=C(\Cl)C(F)(F)F)C2(C)C)c1C#N` [Example 43, [2-cyano-1-(2-propynyl)-1H-pyrrol-3-yl]-methyl (1R,cisΔZ) 2,2-dimethyl-3-[(2-chloro-3,3,3-trifluoro)-1-propenyl]-cyclopropane carboxylate], the “KT 50” value with house flies came out at 2.9 min. The “lethal concentration 50 (LC 50)” value in assay [1] turned out to be 2.8 mg/m^2. Also, the “LD 50” value is recorded as 7.5 in the assay with Aphis cracivora and 342 mg/hl with Tetranychus urticae.
Consider `C#CCn1ccc(COC(=O)[C@@H]2[C@H](/C=C(/F)C(=O)OC(C)(C)C)C2(C)C)c1C(F)(F)F` [Example 40, [2-trifluoromethyl-1-(2-propynyl)-1H-pyrrol-3-yl]-methyl (1R,cis,ΔE) 2,2-dimethyl-3-(3-tertbutyloxy-3-oxo-2-fluoropenyl)-cyclopropane carboxylate], for which the “KT 50” value in the assay with house flies came to 5.6 min. Further, in the assay with house flies (general statement in the description), the knock-down power result is on record as “particularly remarkable”. For the same compound, the “acaricidal effect on Tetranychus urticae” value with Tetranychus urticae (conclusion of the test) is “remarkable acaricidal effect”. In addition, the “LD 50” value with Tetranychus urticae stood at 32 mg/hl.
Turning to `C#CCn1ccc(COC(=O)[C@@H]2[C@@H](C=C(Cl)C(F)(F)F)C2(C)C)c1C#N` [Example 49, [1-(2-propynyl)-2-cyano-1H-pyrrol-3-yl]-methyl 1R, trans (E,1/3) (Z,2/3) 2,2-dimethyl-3-(2-chloro-2-trifluoromethylethenyl)-cyclopropane carboxylate], the “KT 50” value in the assay on house flies came to 11.0 min. The “LD 50” value with Aphis cracivora turned out to be 6.5.
Consider `C#CCn1cc(COC(=O)[C@@H]2[C@H](/C=C(/F)C(=O)OC(C)(C)C)C2(C)C)c(C(F)(F)F)c1` [Example 45, [1-(2-propynyl)-3-trifluoromethyl)-1H-pyrrol-4-yl]methyl (1R,cisΔE) 2,2-dimethyl-3-[2-fluoro-3-oxo-3-tertbutoxypropenyl]-cyclopropane carboxylate], for which the “KT 50” value in the assay on house flies is given as 6.1 min. Besides, in assay [1], the “lethal concentration 50 (LC 50)” value came out at 6.4 mg/m^2. Further, the “LD 50” value in the assay on Tetranychus urticae came out at 264 mg/hl.
